Patent US11110070B2 (priority 2015, dated 2021)
“Also recorded” adds a separate entry of the source. Where a name gives a salt, the structure may show the parent alone.

Assays:
C57BL/6NTac mice [1] = assay: FST in chronic corticosterone (CORT) model; type: in vivo; settings: ketamine 90 mg kg^−1 or fluoxetine 18 mg kg^−1/day, before 3 weeks of CORT; hydrochloride
[2] = Body weight in CORT model; type: in vivo, mice; settings: ketamine 90 mg kg^−1 single injection or fluoxetine 18 mg kg^−1 for 3 weeks, before CORT
129S6/SvEvTac mice [3] = assay: Forced swim test (FST) in social defeat (SD) model; type: in vivo
Procedure: Experiment 1 (Pre-ketamine in social defeat (SD)): At 8 weeks of age, a single injection of saline (0.9% NaCl) or ketamine (K) (10, 30, or 90 mg kg^−1) (Ketaset III, Ketamine HCl, Fort Dodge Animal Health, Forth Dodge, Iowa) was administered. Ketamine was prepared in physiological saline and all injections were administered intraperitoneally (i.p.) in volumes of 0.1 cc per […]. […] At 9 weeks of age, 1 week following this injection, SD was started.
24 h after the last bout of SD, a single injection of saline or ketamine (30 mg kg^−1) was administered (mice were 11 weeks old). The forced swim test (PST) was administered 2 h following the injection.
(§1) Experiment 3 (Pre-fluoxetine in SD): At 6 weeks of age, fluoxetine hydrochloride (Fix) (BioTrend Chemicals AG, B6197) was administered in the drinking water (18 mg kg^−1/day) for 3 weeks before the start of SD. Starting at 9 weeks of age, SD was then administered for 2 weeks without vehicle or Flx in the drinking water.
(§2) Adult aggressor CD-1 male mice were single-housed in Macrolon® polycarbonate resin cages (15.25 in×7.8 in×9.5 in) (Animal Care Systems, Inc., Centennial, Colo.). Male 129S6/SvEvTac mice (9 weeks of age) were subsequently placed into the resident. CD-1 mouse's cage. Three antagonistic encounters were allowed between the CD-1 mouse and the intruder. Each of these encounters typically lasted less than 5 min. Following the encounters, mice were separated by a polished stainless steel cage divider (Animal Care Systems, Inc., Centennial, Colo., P/N C79171), which allowed for olfactory and auditory communication, but limited visual or tactile contact. The partition was removed daily for 2 weeks and 3 antagonistic encounters were allowed between the mice each day. This procedure consistently yielded a submissive phenotype in the experimental intruder mice. Control (Ctrl) mice were group housed 4 to 5 per cage in Macrolon® polycarbonate resin cages without dividers.
The FST was administered as previously described (A11). Briefly, mice were placed into clear plastic buckets 20 cm in diameter and 23 cm deep filled ⅔ of the way with 22° C. water. Mice were videotaped, from the side for 6 min and were exposed to the swim test on 2 consecutive days. For the SI) experiments, scoring was performed using an automated Viewpoint Videotrack software package (http://www.viewpoint.fr/en/a/anxiety-and-depression). For the CORT experiments, automated scoring was done using the automated X'PERT EST software suite (Bioseb, Vitrolles, France). The dependent variable was immobility.

129S6/SvEvTac mice [4] = assay: Fighting behavior during SD bouts; type: in vivo; settings: SD-Flx vs SD-Veh
Procedure: as §2

C57BL/6NTac mice [5] = assay: EPM in CORT model; type: in vivo; settings: ketamine or fluoxetine before CORT
Procedure: (§3) Experiment 5 (Pre-ketamine and pre-fluoxetine corticosterone (CORT)): C57BL16NTac mice were injected with ketamine (10, 30, 90 mg kg^−1, i.p.) 1 week before the start of CORT, or administered fluoxetine (18 mg kg^−1 per day) in the drinking water for 3 weeks before the start of CORT. Ketamine was purchased from Merial (100 mg/ml stock solution). Fluoxetine hydrochloride (160 μg/mL, equivalent to 18 mg kg^−1 per day in the drinking water) was purchased from Anawa Trading (Zurich, Switzerland) and dissolved in 0.45% hydroxypropyl-β-cyclodextrin (β-CD) (Sigma-Aldrich, Saint-Quentin Fallavier, France) solution. Following ketamine or fluoxetine treatment, CORT was administered for 3 weeks in the drinking water. CORT (4-pregnen-11b-DIOL-3 20-DIONE 21-hemisuccinate) (35 μg/ml) from. Sigma Aldrich (Saint-Quentin Fallavier, France) was dissolved in vehicle (0.45% β-CD). Control animals received vehicle (0.45% β-CD) throughout the duration of the experiment.
Testing was performed as previously described (A14). […] For the 12956/SvEv experiments, videos were scored using behavioral tracking software (TopScan, CleverSys, Reston, Va.). For the C57BL/6Ntac experiments, all parameters were measured using a videotracker (EPM3C. Bioseb, Vitrolles, France).

C57BL/6NTac mice [6] = assay: NSF in CORT model; type: in vivo; settings: treatment after 4 weeks of CORT; 14 days after the start of treatment
Procedure: as §3, with “experiment. […]” for “experiment.”
Testing was performed as previously described (A13). […] The latency of the mice to begin eating was recorded. Immediately after the latency was recorded, the food pellet was removed from the arena. The mice were then placed into a cage and the amount of food consumed in 5 min was measured (home cage consumption), followed by an assessment of post-restriction weight. […]

129S6/SvEvTac mice [7] = assay: Other behaviors following fluoxetine treatment before SD; type: in vivo; settings: fluoxetine 3 weeks before SD
Procedure: as §1

C57BL/6NTac mice [8] = assay: Tail suspension test (TST) after CORT; type: in vivo; settings: after 4 weeks of CORT; ketamine 10 mg kg^−1 one injection or fluoxetine 18 mg kg^−1 per day; both time points
Procedure: Experiment 6 (Post-ketamine and post-fluoxetine in CORT); In C57BL/6NTac mice. vehicle or CORT was administered for 4 weeks in the drinking water. While administration with 0.45% β-CD or CORT continued, mice were injected with saline or ketamine (10 mg kg^−1), or were administered vehicle or chronic fluoxetine (18 mg kg^−1 per day in the drinking water).
The TST was administered as previously described (A2). Briefly, animals were suspended for 6 min and immobility during this period was assessed using an automated TST apparatus (Bioseb, Vitrolles, France). A specific strain gauge linked to a computer quantifies the time spent by each mouse trying to escape.

129S6/SvEv mice = assay: FST after prophylactic ketamine or ketamine metabolites (FIG. 15); type: in vivo; settings: at 10 and 30 mg/kg

SMILES	immobility time on day 2 in the FST (C57BL/6NTac mice [1])	CORT-induced increase in body weight [2]	immobility time, day 2 of FST (129S6/SvEvTac mice [3]; Ctrl mice, fluoxetine 18 mg kg^−1 for 3 weeks, vs Ctrl-Veh)	immobility time, day 2 of FST (129S6/SvEvTac mice [3]; SD mice, fluoxetine 18 mg kg^−1 for 3 weeks before SD)	behavior during SD bouts (129S6/SvEvTac mice [4])	time in the closed arms of EPM (anxiety-like phenotype) (C57BL/6NTac mice [5])	latency to feed in NSF (C57BL/6NTac mice [6])	anxiety or cognition (129S6/SvEvTac mice [7])	immobility time in the TST (C57BL/6NTac mice [8])	prophylactic efficacy (behavioral despair, FST) (129S6/SvEv mice)
CNCCC(Oc1ccc(C(F)(F)F)cc1)c1ccccc1 (stereo not shown) [fluoxetine, fluoxetine hydrochloride]	decreased immobility time; also recorded: significantly reduced immobility	prevented the CORT-induced increase in body weight	equal levels of immobility time	did not improve immobility time	do not display differences during SD bouts	Neither ketamine nor fluoxetine robustly protected	decreased the latency to feed	did not significantly alter anxiety or cognition	decreased immobility time in the TST	–
N[C@@]1(c2ccccc2Cl)CCC[C@@H](O)C1=O [HNK, (2R,6R)-hydroxynorketamine]	–	–	–	–	–	–	–	–	–	efficacious as prophylactics
